The experiment has as its target ATM (Homo sapiens (Human), UniProt Q13315). Briefly: ATM in Cell Western Assay (pKAP1 in etoposide-treated MCF-7 cells). The experiment is classed as cell-based. Conditions: pKAP1 in etoposide-treated MCF-7 cells. An outline of the steps: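 Cells received compounds in a 10-dose, 3-fold series from a 1 μM final top concentration, then 100 μM etoposide, for 1 hr at 37° C. They were then fixed with paraformaldehyde and permeabilized with 0.1% Triton X-100. After immunostaining, plates were scanned on an infrared imager.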
Sequence of ATM (Q13315 whole entry): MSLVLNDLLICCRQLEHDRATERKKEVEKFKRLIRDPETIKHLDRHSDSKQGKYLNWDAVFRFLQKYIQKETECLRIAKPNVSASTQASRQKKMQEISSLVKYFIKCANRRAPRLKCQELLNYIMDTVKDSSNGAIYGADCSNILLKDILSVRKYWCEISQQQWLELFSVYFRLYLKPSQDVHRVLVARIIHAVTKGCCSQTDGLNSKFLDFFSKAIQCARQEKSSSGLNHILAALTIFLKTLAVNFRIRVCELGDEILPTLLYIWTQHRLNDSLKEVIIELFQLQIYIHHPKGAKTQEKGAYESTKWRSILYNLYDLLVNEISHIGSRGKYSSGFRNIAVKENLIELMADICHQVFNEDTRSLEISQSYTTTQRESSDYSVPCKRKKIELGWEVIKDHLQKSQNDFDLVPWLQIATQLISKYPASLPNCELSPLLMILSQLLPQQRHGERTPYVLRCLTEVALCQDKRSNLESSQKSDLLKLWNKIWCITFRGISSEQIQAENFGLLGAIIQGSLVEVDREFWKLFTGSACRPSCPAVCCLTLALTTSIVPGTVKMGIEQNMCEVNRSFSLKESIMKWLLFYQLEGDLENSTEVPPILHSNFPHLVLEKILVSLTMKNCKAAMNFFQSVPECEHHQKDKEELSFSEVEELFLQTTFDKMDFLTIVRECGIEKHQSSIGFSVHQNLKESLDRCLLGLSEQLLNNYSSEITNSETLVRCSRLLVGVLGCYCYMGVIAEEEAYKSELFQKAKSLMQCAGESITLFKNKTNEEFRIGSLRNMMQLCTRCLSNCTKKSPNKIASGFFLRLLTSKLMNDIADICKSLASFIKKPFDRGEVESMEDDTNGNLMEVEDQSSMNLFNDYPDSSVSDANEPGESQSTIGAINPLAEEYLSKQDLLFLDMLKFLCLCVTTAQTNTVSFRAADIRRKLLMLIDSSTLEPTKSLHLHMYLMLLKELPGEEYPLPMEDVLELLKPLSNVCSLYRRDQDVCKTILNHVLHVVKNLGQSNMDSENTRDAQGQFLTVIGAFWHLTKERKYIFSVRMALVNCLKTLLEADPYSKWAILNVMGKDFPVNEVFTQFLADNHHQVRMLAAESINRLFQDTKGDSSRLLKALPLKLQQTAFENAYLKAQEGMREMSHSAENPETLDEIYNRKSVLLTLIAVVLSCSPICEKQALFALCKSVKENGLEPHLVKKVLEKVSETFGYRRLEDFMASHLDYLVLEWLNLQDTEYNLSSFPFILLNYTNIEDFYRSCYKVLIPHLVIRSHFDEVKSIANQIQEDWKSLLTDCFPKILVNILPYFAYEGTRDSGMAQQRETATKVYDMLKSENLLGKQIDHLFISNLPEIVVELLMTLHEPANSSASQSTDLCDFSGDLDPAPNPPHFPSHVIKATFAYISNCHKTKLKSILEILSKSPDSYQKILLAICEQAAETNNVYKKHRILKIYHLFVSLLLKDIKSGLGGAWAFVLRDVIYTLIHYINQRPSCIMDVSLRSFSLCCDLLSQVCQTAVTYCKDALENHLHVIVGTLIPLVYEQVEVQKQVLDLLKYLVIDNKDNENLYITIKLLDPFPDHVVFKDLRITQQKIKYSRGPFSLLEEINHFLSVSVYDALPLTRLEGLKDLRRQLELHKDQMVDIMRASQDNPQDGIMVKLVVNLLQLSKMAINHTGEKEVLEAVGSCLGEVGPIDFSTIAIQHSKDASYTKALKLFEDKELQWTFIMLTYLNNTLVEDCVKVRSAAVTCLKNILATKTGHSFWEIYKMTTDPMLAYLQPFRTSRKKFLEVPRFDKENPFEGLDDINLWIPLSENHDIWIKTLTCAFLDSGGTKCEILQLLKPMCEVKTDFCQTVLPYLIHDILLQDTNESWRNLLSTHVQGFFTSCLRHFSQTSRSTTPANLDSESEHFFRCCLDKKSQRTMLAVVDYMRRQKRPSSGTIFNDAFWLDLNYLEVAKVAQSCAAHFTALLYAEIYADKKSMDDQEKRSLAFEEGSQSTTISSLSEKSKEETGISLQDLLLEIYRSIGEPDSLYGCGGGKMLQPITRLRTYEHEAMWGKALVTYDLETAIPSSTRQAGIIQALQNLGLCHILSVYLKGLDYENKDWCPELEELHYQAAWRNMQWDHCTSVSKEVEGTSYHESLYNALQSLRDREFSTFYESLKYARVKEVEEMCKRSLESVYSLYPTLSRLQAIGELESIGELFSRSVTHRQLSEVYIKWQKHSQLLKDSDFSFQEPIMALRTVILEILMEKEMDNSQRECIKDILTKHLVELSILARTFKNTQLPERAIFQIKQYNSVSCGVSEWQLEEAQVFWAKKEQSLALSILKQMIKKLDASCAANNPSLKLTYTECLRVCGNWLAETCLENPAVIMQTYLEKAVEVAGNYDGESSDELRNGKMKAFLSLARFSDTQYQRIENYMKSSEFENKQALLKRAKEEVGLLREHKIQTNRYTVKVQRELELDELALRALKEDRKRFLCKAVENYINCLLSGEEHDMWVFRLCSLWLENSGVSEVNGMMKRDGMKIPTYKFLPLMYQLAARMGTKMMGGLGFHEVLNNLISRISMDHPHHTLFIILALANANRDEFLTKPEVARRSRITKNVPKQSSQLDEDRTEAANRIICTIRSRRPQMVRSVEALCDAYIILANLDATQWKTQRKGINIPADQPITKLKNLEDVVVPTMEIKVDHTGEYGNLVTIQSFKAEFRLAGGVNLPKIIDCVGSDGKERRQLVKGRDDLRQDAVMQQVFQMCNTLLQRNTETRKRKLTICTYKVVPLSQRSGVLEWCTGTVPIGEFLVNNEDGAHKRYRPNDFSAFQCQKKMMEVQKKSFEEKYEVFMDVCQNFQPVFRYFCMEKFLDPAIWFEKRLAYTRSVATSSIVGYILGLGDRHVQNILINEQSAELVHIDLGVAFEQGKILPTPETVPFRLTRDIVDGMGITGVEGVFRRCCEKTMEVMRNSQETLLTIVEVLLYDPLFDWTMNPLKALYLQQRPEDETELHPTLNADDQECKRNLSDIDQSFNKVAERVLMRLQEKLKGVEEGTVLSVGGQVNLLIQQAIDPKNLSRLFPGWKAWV
The term IC50 denotes the concentration at which inhibition is half-maximal. Low values mean greater potency in that assay, high ones weaker potency in that assay. As to `CC(C)NCCOc1ncc(-c2cc3c(cc2F)ncc2c3[C@]3(C[C@H](c4ccc(F)cc4)C3)C(=O)N2C)cc1NS(C)(=O)=O` [Example 422, cis-N-(5-(7′-Fluoro-3-(4-fluorophenyl)-3′-methyl-2′-oxo-2′,3′-dihydrospiro[cyclobutane-1,1′-pyrrolo[2,3-c]quinolin]-8′-yl)-2-(2-(isopropylamino)ethoxy)pyridin-3-yl)methanesulfonamide], the IC50 was in the range of 1 to 100 nM.
In the case of `CC(C)NCCOc1ncc(-c2cc3c(cc2F)ncc2c3[C@]3(C[C@@H](c4cccc(=O)[nH]4)C3)C(=O)N2C)cc1NS(C)(=O)=O` [Example 441, trans-N-(5-(7′-Fluoro-3′-methyl-2′-oxo-3-(6-oxo-1,6-dihydropyridin-2-yl)-2′,3′-dihydrospiro[cyclobutane-1,1′-pyrrolo[2,3-c]quinolin]-8′-yl)-2-(2-(isopropylamino)ethoxy)pyridin-3-yl)methanesulfonamide] it was more than 100 nM; in that of `CC(C)NCCOc1ncc(-c2cc3c(cc2F)ncc2c3[C@]3(C[C@H](c4ccc(=O)[nH]c4)C3)C(=O)N2C)cc1NS(C)(=O)=O` [Example 442, cis-N-(5-(7′-Fluoro-3′-methyl-2′-oxo-3-(6-oxo-1,6-dihydropyridin-3-yl)-2′,3′-dihydrospiro[cyclobutane-1,1′-pyrrolo[2,3-c]quinolin]-8′-yl)-2-(2-(isopropylamino)ethoxy)pyridin-3-yl)methanesulfonamide], more than 100 nM; in that of `CC(C)NCCOc1ncc(-c2cc3c(cc2F)ncc2c3[C@]3(C[C@@H](c4ccc(=O)[nH]c4)C3)C(=O)N2C)cc1NS(C)(=O)=O` [Example 443, trans-N-(5-(7′-Fluoro-3′-methyl-2′-oxo-3-(6-oxo-1,6-dihydropyridin-3-yl)-2′,3′-dihydrospiro[cyclobutane-1,1′-pyrrolo[2,3-c]quinolin]-8′-yl)-2-(2-(isopropylamino)ethoxy)pyridin-3-yl)methanesulfonamide], more than 100 nM.
In the case of `CC(C)NCCOc1ncc(-c2cc3c(cc2F)ncc2c3[C@]3(C[C@H](c4cc[nH]c(=O)c4)C3)C(=O)N2C)cc1NS(C)(=O)=O` [Example 444, cis-N-(5-(7′-fluoro-3′-methyl-2′-oxo-3-(2-oxo-1,2-dihydropyridin-4-yl)-2,3′-dihydrospiro[cyclobulane-1,1′-pyrrolo[2,3-c]quinolin]-8′-yl)-2-(2-(isopropylamino)ethoxy)pyridin-3-yl)methanesulfonamide] it was more than 100 nM.
Regarding `CC(C)NCCOc1ncc(-c2cc3c(cc2F)ncc2c3[C@]3(C[C@@H](c4cc[nH]c(=O)c4)C3)C(=O)N2C)cc1NS(C)(=O)=O` [Example 445, trans-N-(5-(7′-Fluoro-3′-methyl-2′-oxo-3-(2-oxo-l,2-dihydropyridin-4-yl)-2′,3′-dihydrospiro[cyclobutane-1,1′-pyrrolo[2,3-c]quinolin]-8′-yl)-2-(2-(isopropylamino)ethoxy)pyridin-3-yl)methanesulfonamide], the IC50 is more than 100 nM.
As for `CC(C)NCCOc1ncc(-c2cc3c(cc2F)ncc2c3[C@]3(C[C@@H](C)C3)C(=O)N2C)cc1NS(C)(=O)=O` [Example 447, trans-N-(5-(7′-Fluoro-3,3′-dimethyl-2′-oxo-2′,3′-dihydrospiro[cyclobutane-1,1′-pyrrolo[2,3-c]quinolin]-8′-yl)-2-(2-(isopropylamino)ethoxy)pyridin-3-yl)methanesulfonamide], the IC50 fell in the range of 1 to 100 nM.
In the case of `CN(C)CCCOc1c(NS(C)(=O)=O)cc(-c2ccc3ncc4c(c3c2)C2(CCC2)C(=O)N4C)cc1C(N)=O` [Example 449, 2-(3-(Dimethylamino)propoxy)-5-(3′-methyl-2′-oxo-2′,3′-dihydrospiro[cyclobutane-1,1′-pyrrolo[2,3-c]quinolin]-8′-yl)-3-(methylsulfonamido)benzamide] it was 1 to 100 nM.

The record behind these values is US12187742B2 (XRAD Therapeutics, Inc., priority 2018, dated 2025).
